Results on eight compounds are retold here after ChEMBL document CHEMBL1137751, “Molecular hybridization, synthesis, and biological evaluation of novel chroman I(Kr) and I(Ks) dual blockers” (Bioorg Med Chem Lett, 2009).

Calls of active or inactive are those of the source. The rule behind the calls is not given here. Some results are limits rather than exact numbers.

For series [1], the target named is T1, Potassium voltage-gated channel subfamily KQT member 1 (Cavia porcellus, UniProt O70344).
T1 sequence (O70344 whole entry): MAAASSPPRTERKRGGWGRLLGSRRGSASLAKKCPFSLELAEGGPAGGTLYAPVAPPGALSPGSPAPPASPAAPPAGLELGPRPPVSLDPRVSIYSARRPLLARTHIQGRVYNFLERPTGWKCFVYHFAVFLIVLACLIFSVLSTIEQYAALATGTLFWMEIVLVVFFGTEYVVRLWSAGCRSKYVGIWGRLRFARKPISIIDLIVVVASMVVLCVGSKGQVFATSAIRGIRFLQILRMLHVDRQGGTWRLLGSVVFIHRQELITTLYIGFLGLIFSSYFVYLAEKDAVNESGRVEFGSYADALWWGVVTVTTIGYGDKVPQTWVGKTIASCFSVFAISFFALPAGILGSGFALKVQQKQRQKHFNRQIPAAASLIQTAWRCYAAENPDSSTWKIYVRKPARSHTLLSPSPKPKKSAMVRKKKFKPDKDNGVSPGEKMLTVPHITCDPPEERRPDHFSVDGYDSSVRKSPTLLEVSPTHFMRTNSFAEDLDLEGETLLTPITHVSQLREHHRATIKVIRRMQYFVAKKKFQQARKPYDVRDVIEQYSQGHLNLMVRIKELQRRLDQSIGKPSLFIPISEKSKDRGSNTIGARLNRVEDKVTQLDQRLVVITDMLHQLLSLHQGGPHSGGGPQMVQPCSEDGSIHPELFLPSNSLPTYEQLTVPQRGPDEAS
As to the kind of experiment: Inhibition of KVLQT1/minK in guinea pig ventricular myocytes assessed as blockade of slow delayed rectifier potassium current by whole cell patch-clamp technique. It is filed as cell-based, Ventricular myocyte. Background: Patch clamp records ionic current or voltage across a cell membrane.

The target of series [2] is T2, Voltage-gated inwardly rectifying potassium channel KCNH2 (Cavia porcellus, UniProt O08703).
T2 sequence (O08703 whole entry): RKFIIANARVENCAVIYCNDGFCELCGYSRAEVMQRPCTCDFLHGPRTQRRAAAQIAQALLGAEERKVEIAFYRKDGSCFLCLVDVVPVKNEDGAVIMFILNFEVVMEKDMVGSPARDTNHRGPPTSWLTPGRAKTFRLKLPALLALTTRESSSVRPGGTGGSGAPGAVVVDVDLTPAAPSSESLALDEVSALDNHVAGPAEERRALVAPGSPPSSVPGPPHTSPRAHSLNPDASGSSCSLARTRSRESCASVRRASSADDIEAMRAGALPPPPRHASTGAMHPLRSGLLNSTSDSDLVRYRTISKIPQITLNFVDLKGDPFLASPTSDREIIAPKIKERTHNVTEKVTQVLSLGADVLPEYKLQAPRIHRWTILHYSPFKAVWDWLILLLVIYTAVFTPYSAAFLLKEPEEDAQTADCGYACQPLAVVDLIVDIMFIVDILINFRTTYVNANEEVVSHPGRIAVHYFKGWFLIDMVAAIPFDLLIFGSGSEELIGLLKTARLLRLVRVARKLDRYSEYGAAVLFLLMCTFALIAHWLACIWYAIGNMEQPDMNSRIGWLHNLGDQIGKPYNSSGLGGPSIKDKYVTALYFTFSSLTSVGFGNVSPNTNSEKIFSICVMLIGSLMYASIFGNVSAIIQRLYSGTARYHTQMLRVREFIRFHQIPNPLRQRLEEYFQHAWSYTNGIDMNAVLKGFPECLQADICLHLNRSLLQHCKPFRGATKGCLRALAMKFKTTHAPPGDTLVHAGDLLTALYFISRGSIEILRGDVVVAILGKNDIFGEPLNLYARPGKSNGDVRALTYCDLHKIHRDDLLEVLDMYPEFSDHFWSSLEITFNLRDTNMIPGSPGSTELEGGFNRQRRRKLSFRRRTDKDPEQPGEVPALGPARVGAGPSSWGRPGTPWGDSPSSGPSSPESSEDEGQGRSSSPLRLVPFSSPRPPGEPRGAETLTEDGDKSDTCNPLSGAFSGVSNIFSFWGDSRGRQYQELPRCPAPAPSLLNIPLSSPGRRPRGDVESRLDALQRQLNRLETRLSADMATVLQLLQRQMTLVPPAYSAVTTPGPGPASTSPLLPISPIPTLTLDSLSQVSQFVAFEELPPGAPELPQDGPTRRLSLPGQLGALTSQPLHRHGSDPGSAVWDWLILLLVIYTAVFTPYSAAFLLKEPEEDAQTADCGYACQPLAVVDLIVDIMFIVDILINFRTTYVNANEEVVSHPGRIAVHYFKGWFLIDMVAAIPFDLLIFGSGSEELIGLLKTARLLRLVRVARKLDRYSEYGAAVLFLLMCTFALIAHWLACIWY
As to the kind of experiment: Inhibition of ERG in guinea pig ventricular myocytes assessed as blockade of rapid delayed rectifier potassium current by whole cell patch-clamp technique.

In series [3] the test system is Heart. As to the kind of experiment: Cardioprotective effect in isolated langendorff ischemia-reperfused Sprague-Dawley rat heart assessed as duration of QT intervals at 1 uM after 20 mins. Format: functional.
The subject of series [4] is Heart. The experiment in a line: Cardioprotective effect in isolated langendorff ischemia-reperfused Sprague-Dawley rat heart assessed as duration of QTc intervals at 1 uM after 20 mins. It is filed as functional.
In series [5] the test system is Heart. The experiment in a line: Antiarrhythmic activity in langendorff ischemia-reperfused Sprague-Dawley rat heart assessed as cardiac protection at 1 uM. Format: functional, tissue-based.
In series [6] the test system is Heart. The experiment in a line: Cardioprotective effect in isolated langendorff ischemia-reperfused Sprague-Dawley rat heart assessed as reduction of heart rate at 1 uM after 20 mins by RR interval ECG signal. Format: functional. On the set-up: scale not given: the % may be the effect or the level left.
For series [7], the system named is Heart. The experiment in a line: AUC in isolated langendorff ischemia-reperfused Sprague-Dawley rat heart at 1 uM. It is filed as ADME, tissue-based.
Series [8] relates to Heart. As to the kind of experiment: Cardioprotective effect in isolated langendorff ischemia-reperfused Sprague-Dawley rat heart assessed as reduction of heart rate at 3 uM after 20 mins by RR interval ECG signal. It is filed as functional.
Series [9] deals with Heart. As to the kind of experiment: Cardioprotective effect in isolated langendorff ischemia-reperfused Sprague-Dawley rat heart assessed as duration of QTc intervals at 3 uM after 20 mins. Format: functional.
Series [10] has as its system Heart. As to the kind of experiment: Cardioprotective effect in isolated langendorff ischemia-reperfused Sprague-Dawley rat heart assessed as duration of QTc intervals at 0.3 uM after 20 mins. Format: functional.
The test system of series [11] is Heart. As to the kind of experiment: Cardioprotective effect in isolated langendorff ischemia-reperfused Sprague-Dawley rat heart assessed as duration of QT intervals at 3 uM after 20 mins. Format: functional.
In series [12] the test system is Heart. The experiment in a line: Cardioprotective effect in isolated langendorff ischemia-reperfused Sprague-Dawley rat heart assessed as reduction of heart rate at 0.3 uM after 20 mins by RR interval ECG signal. Format: functional.
In series [13] the test system is Heart. The experiment in a line: Antiarrhythmic activity in langendorff ischemia-reperfused Sprague-Dawley rat heart assessed as cardiac protection at 3 uM. It is filed as functional, tissue-based.
For series [14], the system named is Heart. As to the kind of experiment: Cardioprotective effect in isolated langendorff ischemia-reperfused Sprague-Dawley rat heart assessed as duration of QT intervals at 0.3 uM after 20 mins. Format: functional.

One may read the IC50 as the concentration that inhibits the measured activity by half. On to `CN1CCN(CCCCN2C(=O)CN(/N=C3\CCOc4ccc(O)cc43)C2=O)CC1`, for which the results for the IC50 in [1] and in series [2] were 60 µM and > 100 µM, respectively.
In the same order, the values of `CCOc1ccc2c(c1)/C(=N/N1CC(=O)N(CCCCN3CCN(C)CC3)C1=O)CCO2` are > 10 µM and 6.15 µM.
On to `CN1CCN(CCCCN2C(=O)CN(/N=C/c3ccc(-c4ccc(Cl)cc4)o3)C2=O)CC1` [AZIMILIDE], for which the results for the Activity in the series on Heart [3], in the series with Heart [4] and in the series on Heart [6] were 8%, 316.7 ms/s1/2 and 12%, respectively. Besides, the IC50 in series [1] amounted to 0.24 µM; in [2] it was 0.18 µM. In addition, the result in the series with Heart [5] was Active.
Turning to `CCCOc1ccc2c(c1)/C(=N/N1CC(=O)N(CCCN3CCN(C)CC3)C1=O)CCO2`, the Activity result in the series with Heart [7] was “Dose-dependent effect”; in the series with Heart [3], 13%; in the series with Heart [8], 179 bpm; with Heart [4], 2%; with Heart [6] it was 18%; with Heart [9] it was 400.9 ms/s1/2. For the same compound, the Activity is given as 326.1 ms/s1/2 with Heart [10], 248 ms in the series on Heart [11], 198 bpm with Heart [12] and 186.7 ms in the series on Heart [14]. The result with Heart [5] and in the series on Heart [13] was Active.
Turning to `CCCCc1oc2ccccc2c1C(=O)c1cc(I)c(OCCN(CC)CC)c(I)c1` [AMIODARONE], the Activity turned out to be 12% in the series with Heart [3], 13% with Heart [4] and 17% in the series on Heart [6]. For the same compound, the outcome with Heart [5] was Active.
Regarding `O=C1CN(/N=C2\CCOc3ccc(O)cc32)C(=O)N1CCCCN1CCCCC1`, the IC50 in [1] is 5.4 µM; in series [2], > 10 µM.
In the same order, the values of `Cc1ccc2c(c1)/C(=N/N1CC(=O)N(CCCCN3CCN(C)CC3)C1=O)CCO2` are > 100 µM and > 10 µM.
For the compound `CN1CCN(CCCN2C(=O)CN(/N=C3\CCOc4ccc(Cl)cc43)C2=O)CC1`, the values for the IC50 in series [1] and in series [2] were 0.0058 µM and 3.87 µM, respectively.
